Results reported in paper PMC7729195, “Pharmacodynamic Functions of Synthetic Derivatives for Treatment of Methicillin-Resistant Staphylococcus aureus (MRSA) and Mycobacterium tuberculosis” (Frontiers in Microbiology, 2020).
In brackets after ≈: the same amount, converted by molar mass. Several values for one entry are separate records, joined by “and”; a condition that tells them apart may be missing. Equal values may be shown once.

Legend:
M. tuberculosis H37Rv [1] = assay: Checkerboard assay with rifampicin against M. tuberculosis; type: cell-based, Mycobacterium tuberculosis; conditions: for Drug–drug interactions / FIC: M. tuberculosis, compound with rifampicin; for MIC50: Mycobacterium tuberculosis, H37RV, read-out: Compound alone MIC50 for M. tuberculosis
MRSA [2] = assay: Time-kill study against MRSA; type: cell-based, Staphylococcus aureus; conditions: for Bactericidal character: conclusion of time-kill studies; for Effect of sub-inhibitory combination with vancomycin on MRSA growth: sub-inhibitory combinations with vancomycin
[3] = tested on: A549, THP-1, HepG2 and HEK 293 cell lines; type: cell-based, human
Description: (§1) Human alveolar epithelial cells (A549), ([Giard et al., 1973]), Madin-Darby canine kidney epithelial cells (MDCK), ([Gaush et al., 1966]), human leukemia cells (THP-1) ([Tsuchiya et al., 1980]), human hepatocellular carcinoma cells (Hep-G2), ([Aden et al., 1979]), and human embryonic kidney cells 293 (HEK293) ([Graham et al., 1977]) were grown and differentiated in complete RPMI (Roswell Park Memorial Institute Medium) and DMEM (Dulbecco’s Modified Eagle’s medium) tissue culture media (RPMIc and DMEMc). To determine toxicity of the AIMS extract library, 2 × 10^5 of each cell type were added to a 96-well plate and left for 48 h at 37°C to adhere. Extract samples at a final concentration of 0.5 mg mL^–1 were added to the wells, then incubated for 7 days in a humidified 5% CO2 incubator at 37°C. Then resazurin (10 μL of 0.05% w/v) was added, and after 4 h, fluorescence measured as described previously. Cell viability was calculated as percentage fluorescence relative to untreated cells.

A549 = type: cell-based; conditions: human, 7 days
Description: as §1

HepG2 = type: cell-based; conditions: human, 7 days
Description: as §1

HEK 293 = type: cell-based; conditions: human, 7 days
Description: as §1

THP1 = type: cell-based; conditions: human, 7 days
Description: as §1

M. tuberculosis H37Rv [4] = assay: Bacterial inhibition assay (resazurin), MIC against M. tuberculosis; type: cell-based, Mycobacterium tuberculosis; design: MIC for TB. H37Rv: unit not given here; conditions: for MIC: Mycobacterium tuberculosis, H37RV, 168 h; for MIC for TB. H37Rv: Table 6 summary
MRSA [5] = assay: Minimum bactericidal concentration (MBC) for MRSA; type: cell-based, Staphylococcus aureus; design: unit not given here; conditions: sub-culture on agar, 18 h
E. coli EC958 = assay: Bacterial inhibition assay (resazurin), MIC against E. coli; type: cell-based, Escherichia coli; conditions: synthetic compounds, 18 h incubation; for MIC: Escherichia coli, EC958
M. tuberculosis = assay: Time-kill study against M. tuberculosis; type: cell-based, Mycobacterium tuberculosis; conditions: for Effect on bacterial viability: compound treatment, day 6
Description: Time-kill experiments were performed by culturing MRSA and M. tuberculosis in liquid medium in the presence of six synthesized sample concentrations in doubling dilutions ranging from 8 to 0.001 × MIC and 2 × MIC for both bacteria, respectively. Growth curves were initially generated to confirm that bacteria would reach a stable early- to mid-log phase after 2 and 48 h of pre-incubation in antimicrobial-free both medium, respectively. Samples were taken in different incubation times after drug exposure at 0, 2, 4, 6, 8, and 24 h for MRSA and 24, 48 h, and 4 and 6 days for M. tuberculosis and then plated onto agar plates for CFU determination. The experiments were carried out in duplicate and repeated three times.

P. aeruginosa PAO1 = assay: Bacterial inhibition assay (resazurin), MIC against P. aeruginosa; type: cell-based, Pseudomonas aeruginosa; conditions: synthetic compounds, 18 h incubation; for MIC: Pseudomonas aeruginosa, PAO1
MRSA [6] = assay: Checkerboard assay with vancomycin against MRSA; type: cell-based, Staphylococcus aureus; conditions: for FIC / MIC50 / Drug–drug interactions: MRSA; for FIC / Drug–drug interactions: compound with vancomycin; for MIC50: Staphylococcus aureus, compound alone; for Activity against MRSA in combination with vancomycin: vancomycin plus compound
MRSA [7] = assay: Bacterial inhibition assay (resazurin), MIC against MRSA; type: cell-based, Staphylococcus aureus; design: MIC for MRSA: unit not given here; conditions: for MIC: Staphylococcus aureus, MRSA, synthetic compounds, 18 h incubation; for MIC for MRSA: Table 6 summary
resistant strains = assay: MIC against resistant strains; type: cell-based; conditions: read-out: MIC against resistant strains
TB. H37Rv = assay: Minimum bactericidal concentration (MBC) for TB; type: cell-based, Mycobacterium tuberculosis; design: unit not given here; conditions: sub-culture on agar, 7 days
[8] = synthetic compounds, 7 days incubation
[9] = compound 12.5 μM plus vancomycin 50 μg mL^–1

Row | SMILES | Drug–drug interactions (M. tuberculosis H37Rv [1]) | FIC (M. tuberculosis H37Rv [1]) | MIC50 (M. tuberculosis H37Rv [1]) [µM] | Bactericidal character (MRSA [2]) | Effect of sub-inhibitory combination with vancomycin on MRSA growth (MRSA [2]) | Minimum toxicity concentration of drug (MTC) A549 (A549) [µM] | Minimum toxicity concentration of drug (MTC) HepG2 (HepG2) [µM] | Minimum toxicity concentration of drug (MTC) HEK 293 (HEK 293) [µM] | Minimum toxicity concentration of drug (MTC) THP1 (THP1) [µM] | MIC (M. tuberculosis H37Rv [4]; [8]) [µM] | MIC for TB. H37Rv (M. tuberculosis H37Rv [4]) | MBC for MRSA (MRSA [5]) | MIC (E. coli EC958) [µM] | Effect on bacterial viability (M. tuberculosis) | MIC (P. aeruginosa PAO1) [µM] | FIC (MRSA [6]) | MIC50 (MRSA [6]) [µM] | MIC (MRSA [7]) [µM] | MIC for MRSA (MRSA [7]) | MBC for TB. H37Rv (TB. H37Rv) | further results
1 | CCCCCCCCN(CCCCCCCC)c1cccc(C)c1 [Compound 1a, N,N-Dioctyl-3-Methylaniline] | Indifference (0.25–4 indifferent or additive activity) | 1.1 | 1.5 | strongly bactericidal and concentration dependent | substantially inhibited growth of MRSA | >100 ± 4.1 | >100 ± 3.0 | 50 ± 0.9 | 50 ± 2.0 | 1.5 ± 3 (≈ 0.497 µg/mL) | 1.5 | 25 | 12.5 ± 5 (≈ 4.14 µg/mL) | significant reduction in bacterial viability | 6.2 ± 9 (≈ 2.06 µg/mL) | 0.45 | 12.5 | 12.5 ± 1 (≈ 4.14 µg/mL) | 12.5 | 25 | Toxicity against THP1 and/or HEK 293 cells [3]: some toxicity; MTC on all cell lines tested ([3]; human, 7 days): 50 to 100 µM; Activity against MRSA in combination with vancomycin (MRSA [6]): bactericidal activity; MIC (resistant strains): 6.7 to 20 µM (≈ 2.22 to 6.63 µg/mL)
2 | CCCCCCCCCCN(CCCCCC)CCCCCC [Compound 3, N,N-Dihexyldecan-1-Amine] | – | 0.4 | 1.5 | strongly bactericidal and concentration dependent | substantially inhibited growth of MRSA | >100 ± 2.0 | >100 ± 1.0 | 25 ± 2.0 | 50 ± 5.0 | 3.1 (≈ 1.01 µg/mL) | 1.5 | 12.5 | 6.2 (≈ 2.02 µg/mL) | significant reduction in bacterial viability | 3.1 (≈ 1.01 µg/mL) | 1.2 | 12.5 | 12.5 ± 1 (≈ 4.07 µg/mL) | 12.5 | 6.25 | Effect against M. tuberculosis in combination with rifampicin (M. tuberculosis H37Rv [1]; rifampicin plus compound): synergistic or bactericidal effects; Concentration at which killing was observed (MRSA [2]; time-kill, MRSA): 12.5 μg mL^–1; Toxicity against THP1 and/or HEK 293 cells [3]: some toxicity; MIC M. tuberculosis (M. tuberculosis H37Rv [4]; [8]): 3.1 ± 0.7 µM (≈ 1.01 µg/mL); MIC E. coli (E. coli EC958): 6.2 ± 1.0 µM (≈ 2.02 µg/mL); Killing effect with rifampicin (M. tuberculosis; rifampicin plus compound, day 7 of treatment): comparable killing effects; MIC P. aeruginosa (P. aeruginosa PAO1): 3.1 ± 5.0 µM (≈ 1.01 µg/mL); Drug–drug interactions (MRSA [6]): Indifference (0.25–4 indifferent or additive activity)
3 | CN[C@H](CC(C)C)C(=O)N[C@H]1C(=O)N[C@@H](CC(N)=O)C(=O)N[C@H]2C(=O)N[C@H]3C(=O)N[C@H](C(=O)N[C@H](C(=O)O)c4cc(O)cc(O)c4-c4cc3ccc4O)[C@H](O)c3ccc(c(Cl)c3)Oc3cc2cc(c3O[C@@H]2O[C@H](CO)[C@@H](O)[C@H](O)[C@H]2O[C@H]2C[C@](C)(N)[C@H](O)[C@H](C)O2)Oc2ccc(cc2Cl)[C@H]1O [vancomycin, Vancomycin, reference compound] | – | – | – | – | – | – | – | – | – | – | – | – | – | – | – | – | – | – | – | – | Viable count after regrowth (MRSA [2]; 50 μg mL^–1, after 24h): 106 CFU mL^–1; Time-kill effect against MRSA (MRSA [2]; 100 μg mL^–1 at 24 h): bactericidal effect; Time-kill effect against MRSA compared to untreated bacteria (MRSA [2]; concentrations up to 50 μg mL^–1): did not have an antibacterial effect
4 | CCCCCCCCN(CCCCCCCC)Cc1ccccc1 [Compound 2a, N-Benzyl-N-Octyloctan-1Amine] | Indifference (0.25–4 indifferent or additive activity) | 1.1 | 1.5 | strongly bactericidal and concentration dependent | substantially inhibited growth of MRSA | >100 ± 1.0 | >100 ± 0.8 | 50 ± 4.0 | 6.5 ± 0.8 | 1.5 ± 1 (≈ 0.497 µg/mL) | 1.5 | 100 | 50 ± 1 (≈ 16.6 µg/mL) | significant reduction in bacterial viability | 50 ± 1 (≈ 16.6 µg/mL) | 0.328 and 0.33 | 12.5 | 12.5 ± 0.7 (≈ 4.14 µg/mL) | 12.5 | 25 | Time to bactericidal effect (MRSA [2]; [9]): 1 h; Net-growth of MRSA (MRSA [2]; compound 1.5 to 0.1 μM plus vancomycin 50 μg mL^–1, at 24 h): up to 102 CFU mL^–1; Toxicity against THP1 and/or HEK 293 cells [3]: some toxicity; Activity against MRSA in combination with vancomycin (MRSA [6]): bactericidal activity
5 | CCCCCCCCN(CCCCCCCC)c1ccc(C)cc1 [Compound 1b, N,N-Dioctyl-4-Methylaniline] | Indifference (0.25–4 indifferent or additive activity) | 1.1 | 6.25 | – | substantially inhibited growth of MRSA | >100 ± 3.8 | >100 ± 0.9 | >100 ± 6.0 | >100 ± 2.0 | 25 ± 1 (≈ 8.29 µg/mL) | 6.25 | 200 | 100 ± 1 (≈ 33.2 µg/mL) | significant reduction in bacterial viability | 100 ± 6.5 (≈ 33.2 µg/mL) | 1.2 | 100 | 100 ± 5.4 (≈ 33.2 µg/mL) | 100 | 100 | Time-kill effect against log-phase MRSA (MRSA [2]; 100 μM): rapidly reduced growth by 1 h post-treatment; Effect on regrowth of MRSA (MRSA [2]; [9]): substantially reduced regrowth; Toxicity against all four cell lines [3]: low toxicity; Drug–drug interactions (MRSA [6]): Indifference (0.25–4 indifferent or additive activity)
